Test results from patent publication US12552747B2, “Amino acid derivative containing non-steroidal anti-inflammatory drug structure and preparation method and application thereof” (priority 2020, dated 2026).
Marks after values point to notes of the source that are not given here.

Tested on: Liver cancer Bel-7402 cells
Assay: In vitro antitumor activity test (MTT), Bel-7402
Format: cell-based
Conditions: Homo sapiens; Liver cancer Bel-7402, MTT, 24 h
Description: (§1) 13 human tumor cell lines were selected and cultured in RPMI-1640 medium (Gibco company) containing 10% inactivated fetal bovine serum, 100 U/ml penicillin and 100 U/ml streptomycin, cultured at 37° C. in a 5% CO2 incubator, and passaged once every 2 days. Using the MTT method, cells in the logarithmic growth phase were digested with 0.25% trypsin, centrifuged at 1000 r/min for 5 min, 8×10^3 cells were added to each well, and seeded in a 96-well plate, and 180 μl of cell suspension was added to each well, and a blank was set at the same time. The 96-well plate inoculated with tumor cells was placed in a carbon dioxide incubator for 24 hours, and then 20 μl of the drug was added, and an equal volume of culture medium was added to the blank control well, and the drug was divided into 8 concentrations from 50 μg/L to 0.4 μg/L. Three duplicate wells were set for each drug concentration and placed in an incubator for 24 h. 10 μl of MTT solution (5 mg/ml) was added to each well, and the culture was continued for 4 h. The supernatant was aspirated and discarded, 100 μl of dimethyl sulfoxide (DMSO) solution was added to each well, placed on a micro shaker for 10 min, and the absorbance (A value) was measured at a wavelength of 492 nm in a microplate reader, and the inhibition rate of the drug on tumor cells was calculated according to the following formula.
(§2) In this test, the IC50 value of the compound on tumor cells was calculated by the Origin software according to the inhibition rate of the compound. AC-201 in the following table was the abbreviation of PL-AC-201, and so on.

| SMILES | IC50 |
| --- | --- |
| CC(C(=O)NC(Cc1ccc(-c2ccccc2)cc1)C(=O)NC1CC(C)(C)NC(C)(C)C1)c1cccc(C(=O)c2ccccc2)c1 (centres unmarked) [PL-AC-206] | < 38.2 nM |

Tested on: Liver cancer HepG-2 cells
Assay: In vitro antitumor activity test (MTT), HepG-2
Format: cell-based
Conditions: Homo sapiens, HepG2; Liver cancer HepG-2, MTT, 24 h
Description: as §1, §2

| SMILES | IC50 |
| --- | --- |
| CC(C(=O)NC(Cc1ccc(-c2ccccc2)cc1)C(=O)NC1CC(C)(C)NC(C)(C)C1)c1cccc(C(=O)c2ccccc2)c1 (centres unmarked) [PL-AC-206] | 16.1 nM |

Tested on: Liver cancer SK-hep1 cells
Assay: In vitro antitumor activity test (MTT), SK-hep1
Format: cell-based
Conditions: Homo sapiens, 24 h
Description: as §1, §2

| SMILES | IC50 |
| --- | --- |
| CC(C(=O)NC(Cc1ccc(-c2ccccc2)cc1)C(=O)NC1CC(C)(C)NC(C)(C)C1)c1cccc(C(=O)c2ccccc2)c1 (centres unmarked) [PL-AC-206] | 15.7 nM |

Tested on: Lung cancer A549 cells
Assay: In vitro antitumor activity test (MTT), A549
Format: cell-based
Conditions: Homo sapiens, 24 h
Description: as §1, §2

| SMILES | IC50 |
| --- | --- |
| CC(C(=O)NC(Cc1ccc(-c2ccccc2)cc1)C(=O)NC1CC(C)(C)NC(C)(C)C1)c1cccc(C(=O)c2ccccc2)c1 (centres unmarked) [PL-AC-206] | 27.5 nM |

Tested on: Lung cancer H460 cells
Assay: In vitro antitumor activity test (MTT), H460
Format: cell-based
Conditions: Homo sapiens, NCI-H460, 24 h
Description: as §1, §2

| SMILES | IC50 |
| --- | --- |
| CC(C(=O)NC(Cc1ccc(-c2ccccc2)cc1)C(=O)NC1CC(C)(C)NC(C)(C)C1)c1cccc(C(=O)c2ccccc2)c1 (centres unmarked) [PL-AC-206] | 20 nM |

Tested on: Lung cancer H1299 cells
Assay: In vitro antitumor activity test (MTT), H1299
Format: cell-based
Conditions: Homo sapiens, NCI-H1299, 24 h
Description: as §1, §2

| SMILES | IC50 |
| --- | --- |
| CC(C(=O)NC(Cc1ccc(-c2ccccc2)cc1)C(=O)NC1CC(C)(C)NC(C)(C)C1)c1cccc(C(=O)c2ccccc2)c1 (centres unmarked) [PL-AC-206] | 20.2 nM |

Tested on: Lung cancer H292 cells
Assay: In vitro antitumor activity test (MTT), H292
Format: cell-based
Conditions: Homo sapiens, NCI-H292, 24 h
Description: as §1, §2

| SMILES | IC50 |
| --- | --- |
| CC(C(=O)NC(Cc1ccc(-c2ccccc2)cc1)C(=O)NC1CC(C)(C)NC(C)(C)C1)c1cccc(C(=O)c2ccccc2)c1 (centres unmarked) [PL-AC-206] | 24.1 nM |

Tested on: Breast cancer MCF-7 cells
Assay: In vitro antitumor activity test (MTT), MCF-7
Format: cell-based
Conditions: Homo sapiens, MCF7; Breast cancer MCF-7, MTT, 24 h
Description: as §1, §2

| SMILES | IC50 |
| --- | --- |
| CC(C(=O)NC(Cc1ccc(-c2ccccc2)cc1)C(=O)NC1CC(C)(C)NC(C)(C)C1)c1cccc(C(=O)c2ccccc2)c1 (centres unmarked) [PL-AC-206] | 22.5 nM |

Tested on: Pancreatic cancer Bxpc-3 cells
Assay: In vitro antitumor activity test (MTT), Bxpc-3
Format: cell-based
Conditions: Homo sapiens; Pancreatic cancer Bxpc-3, MTT, 24 h
Description: as §1, §2

| SMILES | IC50 |
| --- | --- |
| CC(C(=O)NC(Cc1ccc(-c2ccccc2)cc1)C(=O)NC1CC(C)(C)NC(C)(C)C1)c1cccc(C(=O)c2ccccc2)c1 (centres unmarked) [PL-AC-206] | 37.7 nM |

Tested on: Colon cancer HT29 cells
Assay: In vitro antitumor activity test (MTT), HT29
Format: cell-based
Conditions: Homo sapiens, HT-29, 24 h
Description: as §1, §2

| SMILES | IC50 |
| --- | --- |
| CC(C(=O)NC(Cc1ccc(-c2ccccc2)cc1)C(=O)NC1CC(C)(C)NC(C)(C)C1)c1cccc(C(=O)c2ccccc2)c1 (centres unmarked) [PL-AC-206] | 37.4 nM |

Tested on: Cervical cancer Hela cells
Assay: In vitro antitumor activity test (MTT), Hela
Format: cell-based
Conditions: Homo sapiens, 24 h
Description: as §1, §2

| SMILES | IC50 |
| --- | --- |
| CC(C(=O)NC(Cc1ccc(-c2ccccc2)cc1)C(=O)NC1CC(C)(C)NC(C)(C)C1)c1cccc(C(=O)c2ccccc2)c1 (centres unmarked) [PL-AC-206] | 19.2 nM |

Tested on: Melanoma B16 cells
Assay: In vitro antitumor activity test (MTT), B16
Format: cell-based
Conditions: 24 h
Description: as §1, §2

| SMILES | IC50 |
| --- | --- |
| CC(C(=O)NC(Cc1ccc(-c2ccccc2)cc1)C(=O)NC1CC(C)(C)NC(C)(C)C1)c1cccc(C(=O)c2ccccc2)c1 (centres unmarked) [PL-AC-206] | 30.1 nM |

Tested on: Human osteosarcoma MG63 cells
Assay: In vitro antitumor activity test (MTT), MG63
Format: cell-based
Conditions: MG-63, 24 h
Description: as §1, §2

| SMILES | IC50 |
| --- | --- |
| CC(C(=O)NC(Cc1ccc(-c2ccccc2)cc1)C(=O)NC1CC(C)(C)NC(C)(C)C1)c1cccc(C(=O)c2ccccc2)c1 (centres unmarked) [PL-AC-206] | 24.9 nM |

Tested on: human red blood cells
Assay: Detection of hemolytic activity
Format: cell-based
Conditions: hemolytic concentration, in nM
Description: 2-3 ml of human blood was drawn using an anticoagulant tube, thoroughly mixed, and kept at 4° C. for later use. 2 ml of blood was aspirated and added with 2-3 ml of PBS, followed by gently pipetting and centrifugation for 5 min at 1000 rpm, which was repeated 3-4 times. After the last centrifugation, PBS was aspirated, PBS was added to 40 ml (20 times the volume), and the number of blood cells at this time was 2×10^8 cells/ml. The red blood cell suspension was added to the plate (U-shaped 96-well plate), and 70 μl/well was used as a negative well. Only PBS was added to blank wells, 140 μl/well. 2 ml of the red blood cell suspension was centrifuged, PBS was discarded, 2 ml of pure water was added, mixed well, and 140 μl/well was used as a positive well. The diluted polypeptide solutions of different concentrations were added to the plate, 70 μl/well. Incubated at 37° C., 87 rpm, shaken for 2h, centrifuged for 5 min at 3000 rpm. The OD value measured by microplate reader: After centrifugation, 90 μl of supernatant was drawn and transferred to a flat-bottom 96-well plate, and the OD value at 578 nm was measured by microplate reader. ODtest-OD negative >0.1 (the first concentration that met the conditions was MHC).

| SMILES | MHC |
| --- | --- |
| CC(C(=O)NC(Cc1ccc(-c2ccccc2)cc1)C(=O)NC1CC(C)(C)NC(C)(C)C1)c1cccc(C(=O)c2ccccc2)c1 (centres unmarked) [PL-AC-206] | 4.9e+06 nM |

Same assay, conditions: human red blood cells, 37° C., 2h; first concentration with ODtest-OD negative >0.1

| SMILES | MHC |
| --- | --- |
| CC(C(=O)NC(Cc1ccc(-c2ccccc2)cc1)C(=O)NC1CC(C)(C)NC(C)(C)C1)c1cccc(C(=O)c2ccccc2)c1 (centres unmarked) [PL-AC-206] | 3000 µg/mL |

Tested on: 13 human tumor cell lines
Assay: Average IC50 over the tumor cell lines (MTT)
Format: cell-based
Conditions: mean IC50 for each tumor, read-out: AverageIC50
Description: as §1, §2
The ratio of the hemolytic concentration MHC of the compound to the mean IC50 for each tumor was referred to as the therapeutic index (TI). The safety of the compound was evaluated by the therapeutic index. The higher the therapeutic index, the greater the safety range of the compound.

| SMILES | IC50 |
| --- | --- |
| CC(C(=O)NC(Cc1ccc(-c2ccccc2)cc1)C(=O)NC1CC(C)(C)NC(C)(C)C1)c1cccc(C(=O)c2ccccc2)c1 (centres unmarked) [PL-AC-206] | 24.6 nM |

Tested on: not listed separately
Assay: Acute toxicity test of single administration to ICR mice
Conditions: mouse, in vivo, intravenous, single tail vein injection, observed 7 days
Description: ICR mice, 18-22 g, were raised in a common-grade animal room, fed with common feed, and ingested freely. The group distance and dose were determined after exploring the Dm and Dn of the compounds of the examples. Five concentrations of the compounds of the examples were formulated at the desired dose. The corresponding doses of drugs were injected into the tail vein according to body weight, and the blank control group was injected with normal saline. Immediately after administration, the performance and death of each animal were observed and recorded, and the possible toxic reaction or death of animals within 7 days after a single administration was observed and recorded.

| SMILES | LD50 at 7 days |
| --- | --- |
| CC(C(=O)NC(Cc1ccc(-c2ccccc2)cc1)C(=O)NC1CC(C)(C)NC(C)(C)C1)c1cccc(C(=O)c2ccccc2)c1 (centres unmarked) [PL-AC-206] | 31.7 mg/kg |

Tested on: Bel-7402 liver tumors
Assay: Transplanted tumor in nude mice, intraperitoneal, Bel-7402
Format: in vivo, BALB/c nude mice
Conditions: Bel-7402, 5 mg/kg i.p. once every 3 days, 8 administrations
Description: (§3) BALB/c nude mice were used to inoculate Bel-7402, HepG-2 and SK-hep1 liver tumors according to the transplanted tumor research method under aseptic operation, and the cell density was not less than 5×10^6/ml, 0.2 ml was inoculated subcutaneously in the axilla of the right hind limb of each mouse. After the cells were inoculated, the cells were administered intraperitoneally (concentration: 5 mg/kg), once every 3 days, for a total of 8 administrations. After the 2nd day of drug withdrawal, all tumor-bearing mice were sacrificed, and their body weight, tumor weight and tumor inhibition were weighed.

| SMILES | Tumor inhibition rate | Tumor weight |
| --- | --- | --- |
| CC(C(=O)NC(Cc1ccc(-c2ccccc2)cc1)C(=O)NC1CC(C)(C)NC(C)(C)C1)c1cccc(C(=O)c2ccccc2)c1 (centres unmarked) [PL-AC-206] | ^ΔΔ71.4** % | 226.8 ± 9.1 mg |

Same assay, conditions: Bel-7402 tumor-bearing BALB/c mice, 5 mg/kg i.p. once every 3 days, 8 administrations

| SMILES | Body Weight After administration |
| --- | --- |
| CC(C(=O)NC(Cc1ccc(-c2ccccc2)cc1)C(=O)NC1CC(C)(C)NC(C)(C)C1)c1cccc(C(=O)c2ccccc2)c1 (centres unmarked) [PL-AC-206] | 23.8 ± 1.3 g |

Tested on: HepG-2 liver tumors
Assay: Transplanted tumor in nude mice, intraperitoneal, HepG-2
Format: in vivo, BALB/c nude mice
Conditions: HepG-2, 5 mg/kg i.p. once every 3 days, 8 administrations
Description: as §3

| SMILES | Tumor inhibition rate | Tumor weight |
| --- | --- | --- |
| CC(C(=O)NC(Cc1ccc(-c2ccccc2)cc1)C(=O)NC1CC(C)(C)NC(C)(C)C1)c1cccc(C(=O)c2ccccc2)c1 (centres unmarked) [PL-AC-206] | ^ΔΔ74.6** % | 468.9 ± 2.2 mg |

Same assay, conditions: HepG-2 tumor-bearing BALB/c mice, 5 mg/kg i.p. once every 3 days, 8 administrations

| SMILES | Body Weight After administration |
| --- | --- |
| CC(C(=O)NC(Cc1ccc(-c2ccccc2)cc1)C(=O)NC1CC(C)(C)NC(C)(C)C1)c1cccc(C(=O)c2ccccc2)c1 (centres unmarked) [PL-AC-206] | 23.5 ± 1.1 g |

Tested on: SK-hep1 liver tumors
Assay: Transplanted tumor in nude mice, intraperitoneal, SK-hep1
Format: in vivo, BALB/c nude mice
Conditions: SK-hep1, 5 mg/kg i.p. once every 3 days, 8 administrations
Description: as §3

| SMILES | Tumor inhibition rate | Tumor weight |
| --- | --- | --- |
| CC(C(=O)NC(Cc1ccc(-c2ccccc2)cc1)C(=O)NC1CC(C)(C)NC(C)(C)C1)c1cccc(C(=O)c2ccccc2)c1 (centres unmarked) [PL-AC-206] | ^ΔΔ69.9** % | 337.3 ± 6.1 mg |

Same assay, conditions: SK-hep1 tumor-bearing BALB/c mice, 5 mg/kg i.p. once every 3 days, 8 administrations

| SMILES | Body Weight After administration |
| --- | --- |
| CC(C(=O)NC(Cc1ccc(-c2ccccc2)cc1)C(=O)NC1CC(C)(C)NC(C)(C)C1)c1cccc(C(=O)c2ccccc2)c1 (centres unmarked) [PL-AC-206] | 23.0 ± 1.5 g |
